Where no end group is shown, it is not given here.
Assay: Turbidity assay for solubility of the peptides
Format: physicochemical
Conditions: solubility of the antigenic peptides in water or Dimethyl Sulfoxide (DMSO)
Protocol: A number of antigenic peptides of the invention were synthesized by chemical synthesis as described in Section 5.1.1.
A turbidity assay was used to assess the solubility of the peptides. Turbidity assays used either a Varian Cary double-beam spectrophotometer, or a Molecular Devices Spectromax absorbance plate reader (for high throughput experiments). The spectrophotometer assay read every 2 nm between 340 nm and 360 nm, and averaged the values. Samples were analyzed in duplicate using a quartz micro-cuvette that holds about 200 uL. The plate reader assay used a 96-well plate format that read every 4 nm between 340 nm and 360 nm and averaged those values. Samples in this assay were run in triplicate.

ILSPGALAAIENYVRFSADRLLGLIHMQPLYSAPA [UL40-2]
Solubility: water

CC[C@H](C)[C@H](NC(=O)[C@H](C)NC(=O)[C@H](CCC(=O)O)NC(=O)[C@H](CCCNC(=N)N)NC(=O)[C@H](CC(=O)O)NC(=O)[C@H](Cc1ccc(O)cc1)NC(=O)[C@H](CO)NC(=O)[C@@H]1CCCN1C(=O)[C@H](Cc1ccc(O)cc1)NC(=O)[C@H](CCCNC(=N)N)NC(=O)[C@H](CCCNC(=N)N)NC(=O)[C@H](CCC(N)=O)NC(=O)[C@H](Cc1ccc(O)cc1)NC(=O)[C@H](CCCCN)NC(=O)[C@@H](NC(=O)[C@@H](NC(=O)[C@H](CC(C)C)NC(=O)[C@@H](NC(=O)[C@H](Cc1ccc(O)cc1)NC(=O)[C@H](CCSC)NC(=O)[C@@H](NC(=O)[C@H](CC(N)=O)NC(=O)[C@H](Cc1c[nH]c2ccccc12)NC(=O)[C@H](CC(C)C)NC(=O)[C@H](CC(=O)O)NC(=O)[C@@H](NC(=O)[C@H](C)NC(=O)[C@@H](NC(=O)[C@@H]1CCCN1C(=O)[C@@H](NC(=O)[C@H](Cc1ccccc1)NC(=O)[C@H](Cc1ccc(O)cc1)NC(=O)CN)[C@@H](C)O)[C@@H](C)CC)C(C)C)C(C)C)[C@@H](C)O)C(C)C)C(C)C)C(=O)N[C@H](C(=O)N[C@@H](CC(C)C)C(=O)O)[C@@H](C)O [UL41-3]
Solubility: DMSO

CC(C)C[C@H](NC(=O)[C@H](CO)NC(=O)[C@@H]1CCCN1C(=O)[C@H](CC(=O)O)NC(=O)[C@H](CS)NC(=O)[C@H](CC(=O)O)NC(=O)CNC(=O)[C@H](C)NC(=O)[C@@H]1CCCN1C(=O)[C@@H](N)CC(=O)O)C(=O)N[C@@H](Cc1c[nH]cn1)C(=O)N[C@H](C(=O)N[C@@H](CC(C)C)C(=O)N[C@@H](CC(C)C)C(=O)N[C@@H](CCCNC(=N)N)C(=O)N1CCC[C@H]1C(=O)N[C@H](C(=O)N[C@@H](CC(C)C)C(=O)N[C@@H](CC(C)C)C(=O)N1CCC[C@H]1C(=O)N[C@@H](CCCCN)C(=O)N[C@@H](CC(C)C)C(=O)N[C@@H](CC(C)C)C(=O)N[C@H](C(=O)N[C@@H](CCCNC(=N)N)C(=O)N[C@@H](C)C(=O)N1CCC[C@H]1C(=O)N[C@@H](Cc1ccccc1)C(=O)N[C@@H](CCCCN)C(=O)N[C@@H](CO)C(=O)NCC(=O)N[C@@H](C)C(=O)N[C@@H](C)C(=O)N[C@@H](C)C(=O)N[C@@H](C)C(=O)O)C(C)C)[C@@H](C)O)C(C)C [UL46-1]
Solubility: water

VHSRVYNIIQLVLFHNNDQARRAYVARTINHPAIR [UL40-3]
Solubility: water

RAYLVNPFLFAAGFLEDLSHSVFPADTQETTTRRA [UL01-1]
Solubility: water

DRPSAYGTWVRVRVFRPPSLTIHPHAVLEGQPFKA [UL44-4]
Solubility: water

CC[C@H](C)[C@H](NC(=O)[C@@H](NC(=O)[C@H](CC(=O)O)NC(=O)[C@H](CCCNC(=N)N)NC(=O)[C@H](C)N)C(C)C)C(=O)N[C@@H](CCCNC(=N)N)C(=O)N[C@@H](CCC(=O)O)C(=O)N[C@H](C(=O)N[C@@H](CC(=O)O)C(=O)N[C@@H](C)C(=O)N[C@@H](Cc1ccccc1)C(=O)N[C@@H](Cc1ccc(O)cc1)C(=O)NCC(=O)N[C@@H](CC(=O)O)C(=O)N[C@@H](CC(C)C)C(=O)N[C@@H](C)C(=O)N[C@@H](CC(=O)O)C(=O)N[C@@H](CC(C)C)C(=O)N[C@@H](CC(=O)O)C(=O)N[C@@H](CC(C)C)C(=O)N[C@@H](CCC(N)=O)C(=O)N[C@@H](CC(C)C)C(=O)N[C@@H](CCCNC(=N)N)C(=O)N[C@@H](C)C(=O)N[C@@H](C)C(=O)N1CCC[C@H]1C(=O)N1CCC[C@H]1C(=O)N[C@@H](C)C(=O)N[C@@H](CC(N)=O)C(=O)N[C@@H](CC(C)C)C(=O)N[C@@H](Cc1ccc(O)cc1)C(=O)N[C@@H](C)C(=O)N[C@@H](CCCNC(=N)N)C(=O)N[C@@H](CC(C)C)C(=O)NCC(=O)O)[C@@H](C)O [UL36-4]
Solubility: DMSO

SRLPPHTQPVFSKRVVMFAWSFLVLKPLELVAAGM [UL20-1]
Solubility: water

CC[C@H](C)[C@H](NC(=O)[C@H](CCCCN)NC(=O)[C@@H](N)C(C)C)C(=O)N[C@@H](CCCNC(=N)N)C(=O)N[C@H](C(=O)N[C@@H](CCC(=O)O)C(=O)N[C@@H](CCC(=O)O)C(=O)N[C@@H](CCC(N)=O)C(=O)N[C@@H](C)C(=O)N[C@@H](C)C(=O)N[C@@H](CCCNC(=N)N)C(=O)N[C@@H](CCCNC(=N)N)C(=O)N[C@@H](CC(=O)O)C(=O)N[C@@H](Cc1ccccc1)C(=O)N[C@@H](CC(C)C)C(=O)N[C@H](C(=O)N[C@@H](C)C(=O)N[C@@H](Cc1c[nH]cn1)C(=O)N[C@@H](CCCNC(=N)N)C(=O)N[C@@H](CCCNC(=N)N)C(=O)N[C@@H](Cc1ccc(O)cc1)C(=O)N[C@@H](CC(C)C)C(=O)N[C@@H](CC(=O)O)C(=O)N1CCC[C@H]1C(=O)N[C@@H](C)C(=O)N[C@@H](CC(C)C)C(=O)N[C@@H](CO)C(=O)N[C@@H](CCC(=O)O)C(=O)N[C@@H](CCCNC(=N)N)C(=O)N[C@@H](CC(C)C)C(=O)N[C@@H](CC(=O)O)C(=O)N[C@@H](C)C(=O)N[C@@H](C)C(=O)N[C@@H](CC(=O)O)C(=O)N[C@@H](CC(=O)O)C(=O)O)[C@@H](C)O)C(C)C [UL14-2]
Solubility: water

DEVAPDHEAELYARVQRPGPVPDAEPIYDTVEGYA [UL10-5]
Solubility: water

CC[C@H](C)[C@H](NC(=O)[C@H](CC(C)C)NC(=O)[C@H](CO)NC(=O)[C@@H](NC(=O)[C@@H](NC(=O)[C@H](Cc1ccc(O)cc1)NC(=O)[C@H](CCCCN)NC(=O)[C@@H](NC(=O)[C@H](Cc1ccc(O)cc1)NC(=O)[C@H](CCCNC(=N)N)NC(=O)[C@H](Cc1c[nH]cn1)NC(=O)[C@H](CCC(=O)O)NC(=O)[C@@H](NC(=O)[C@H](CC(C)C)NC(=O)[C@H](CCC(=O)O)NC(=O)[C@H](C)NC(=O)[C@@H](NC(=O)[C@@H](N)[C@@H](C)O)[C@@H](C)CC)C(C)C)C(C)C)C(C)C)[C@@H](C)CC)C(=O)N[C@@H](CO)C(=O)N1CCC[C@H]1C(=O)N[C@@H](CCCCN)C(=O)N[C@@H](CCC(=O)O)C(=O)N[C@@H](CCCNC(=N)N)C(=O)NCC(=O)N1CCC[C@H]1C(=O)N[C@@H](Cc1c[nH]c2ccccc12)C(=O)N[C@H](C(=O)N[C@@H](CC(C)C)C(=O)N[C@@H](CC(C)C)C(=O)N[C@@H](CCCCN)C(=O)N[C@@H](CCCNC(=N)N)C(=O)N[C@@H](CC(C)C)C(=O)N1CCC[C@H]1C(=O)N[C@H](C(=O)N[C@@H](Cc1ccc(O)cc1)C(=O)O)[C@@H](C)CC)[C@@H](C)O [UL41-2]
Solubility: water

DRPPESPGSELYPLNAQALAHLQMLPADHRAFFRT [US10-2]
Solubility: water

ASSQSKPLATQPPVLALSNAPPRRVSPTRGRRRHT [UL01-3]
Solubility: water

CC[C@H](C)[C@H](NC(=O)[C@@H]1CCCN1C(=O)[C@H](CC(C)C)NC(=O)[C@H](Cc1ccc(O)cc1)NC(=O)[C@@H](N)CCCNC(=N)N)C(=O)N[C@@H](C)C(=O)NCC(=O)N[C@H](C(=O)N[C@@H](CO)C(=O)N[C@@H](CO)C(=O)N[C@H](C(=O)N[C@H](C(=O)N[C@@H](C)C(=O)N[C@@H](CC(C)C)C(=O)N[C@@H](C)C(=O)N1CCC[C@H]1C(=O)N[C@@H](Cc1ccc(O)cc1)C(=O)N[C@H](C(=O)N[C@@H](CC(N)=O)C(=O)N[C@@H](CCCCN)C(=O)N[C@H](C(=O)N[C@H](C(=O)N[C@H](C(=O)NCC(=O)N[C@@H](CC(=O)O)C(=O)N[C@@H](CS)C(=O)N[C@@H](CC(C)C)C(=O)N1CCC[C@H]1C(=O)N[C@H](C(=O)N[C@@H](CC(C)C)C(=O)N[C@@H](CC(=O)O)C(=O)N[C@@H](CCSC)C(=O)N[C@@H](CCC(=O)O)C(=O)N[C@H](C(=O)NCC(=O)O)[C@@H](C)O)C(C)C)[C@@H](C)O)C(C)C)[C@@H](C)O)C(C)C)C(C)C)C(C)C)C(C)C [RL02-2]
Solubility: DMSO

CSCC[C@H](NC(=O)[C@H](CC(C)C)NC(=O)[C@H](Cc1ccccc1)NC(=O)CNC(=O)[C@H](CC(C)C)NC(=O)[C@H](CC(N)=O)NC(=O)[C@H](CC(=O)O)NC(=O)[C@H](CCC(=O)O)NC(=O)[C@H](CO)NC(=O)[C@@H](NC(=O)[C@H](C)NC(=O)[C@H](CO)NC(=O)[C@H](Cc1ccccc1)NC(=O)[C@H](CO)NC(=O)[C@H](CC(=O)O)NC(=O)[C@H](Cc1ccc(O)cc1)NC(=O)[C@H](Cc1ccc(O)cc1)NC(=O)[C@H](CO)NC(=O)[C@H](Cc1c[nH]c2ccccc12)NC(=O)[C@@H](N)CCCNC(=N)N)C(C)C)C(=O)N[C@@H](Cc1c[nH]cn1)C(=O)N[C@@H](C)C(=O)N1CCC[C@H]1C(=O)N[C@@H](C)C(=O)N[C@@H](Cc1ccccc1)C(=O)N[C@@H](CCC(=O)O)C(=O)N[C@H](C(=O)N[C@@H](C)C(=O)NCC(=O)N[C@H](C(=O)N[C@@H](Cc1ccc(O)cc1)C(=O)N[C@@H](CC(C)C)C(=O)N[C@@H](CCCNC(=N)N)C(=O)N[C@@H](CC(C)C)C(=O)N[C@H](C(=O)O)C(C)C)[C@@H](C)O)[C@@H](C)O [US06-1]
Solubility: DMSO

VSPAHPQTPVGAGSRDLSLKGTPSDGMQPRGADTL [US11-1]
Solubility: water

IVGILGCAAVGAAPTGPASDTTNATARLPTHPPLI [US05-2]
Solubility: water

AGLPSPVPYAPLGSPDPSSPRQRTYVLPRVGIHNA [US10-1]
Solubility: water

VSIIALTELYFILRRGSAPKNAEPAAPRGRSKGWS [UL53-3]
Solubility: water

LEVIFPTTDAKLNYLSRTQRLASLLTYAGPIKAPD [UL33-1]
Solubility: water

CSCC[C@H](NC(=O)[C@H](C)N)C(=O)N[C@@H](CO)C(=O)N[C@@H](CCCNC(=N)N)C(=O)N[C@@H](CCCNC(=N)N)C(=O)N[C@@H](Cc1ccc(O)cc1)C(=O)N[C@@H](CC(=O)O)C(=O)N[C@@H](CCCNC(=N)N)C(=O)N[C@@H](C)C(=O)N[C@@H](CCC(N)=O)C(=O)N[C@@H](CCCCN)C(=O)NCC(=O)N[C@@H](Cc1ccccc1)C(=O)N[C@@H](CC(C)C)C(=O)N[C@@H](CC(C)C)C(=O)N[C@H](C(=O)N[C@@H](CO)C(=O)N[C@@H](CC(C)C)C(=O)N[C@@H](CCCNC(=N)N)C(=O)N[C@@H](CCCNC(=N)N)C(=O)N[C@@H](C)C(=O)N[C@@H](Cc1ccc(O)cc1)C(=O)N[C@@H](C)C(=O)N1CCC[C@H]1C(=O)N[C@@H](CC(C)C)C(=O)N[C@@H](CC(C)C)C(=O)N[C@@H](C)C(=O)N[C@@H](CCCNC(=N)N)C(=O)N[C@@H](CCC(=O)O)C(=O)N[C@@H](CC(N)=O)C(=O)N[C@@H](C)C(=O)N[C@@H](C)C(=O)N[C@@H](CC(C)C)C(=O)N[C@H](C(=O)NCC(=O)O)[C@@H](C)O)[C@@H](C)O [RS01-2]
Solubility: water
